For assay [1], the system named is p27. In words: Western blot / immunoprecipitation of p27 and prenylated proteins in MDA-MB-468 cells. It counts as cell-based, human. The arrangement: Rap1 geranylgeranylation / HDJ-2 farnesylation / processing / p27 protein levels: dose or concentration left out as unconfirmed. The method, then:
MDA-MB-468 cells were lysed using CelLytic™ M Cell Lysis Reagent (Sigma-Aldrich, St. Louis, Mo.) containing protease inhibitor cocktail, 2 mM phenylmethylsulfonylfluoride (PMSF), 2 mM Na3VO4, and 6.4 mg/ml p-nitrophenylphosphate (Sigma-Aldrich). Lysates were incubated overnight with p27 antibody (BD Biosciences, San Jose, Calif.) at 4° C. while rocking; after incubation protein A anti-IgG agarose beads were added and incubated for 2 h at 4° C., then washed four times with an excess of lysis buffer. Samples were then boiled at 100° C. for 10 min in 2×SDS-sample buffer and analyzed by Western blotting as described below.
To prepare whole cell lysates, cells were trypsinized, washed with phosphate buffered saline (PBS) twice, and lysed in 30 mM Hepes, pH 7.5, 10 mM NaCl, 5 mM MgCl2, 25 mM NaF, 1 mM EGTA, 1% Triton-X-100, 10% glycerol, protease inhibitor cocktail, 2 mM PMSF, 2 mM Na3VO4, and 6.4 mg/ml p-nitrophenylphosphate. Lysates were cleared by centrifugation at 12,000×g for 15 min, and the supernatants were collected as whole cell extracts. The protein concentration was determined by the Bradford assay. Proteins were separated by SDS-PAGE and transferred to nitrocellulose membranes, which were then blotted with antibodies specific for whole Rap1 or unprenylated Rap1, Ras, the C-terminal region of pRb, Akt (Santa Cruz Biotechnology, Santa Cruz, Calif.), phospho-Akt(S473) (Cell Signaling, Danvers, Mass.), p27 (BD Biosciences, San Jose, Calif.), phospho-p27(T187) (Invitrogen, Carlsbad, Calif.), HDJ-2 (Lab Vision Corporation, Fremont, Calif.), phosphotyrosine (Millipore, Billerica, Mass.), and β-actin (Sigma-Aldrich, St. Louis, Mo.). Select bands were quantified using AlphaEaseFC densitometry software (AlphaInnotech, San Leandro, Calif.).
A general note: In western blotting, separated proteins are transferred to a membrane and probed.

The test system of assay [2] is p27 wild-type MEFs. In words: Trypan Blue exclusion assay in p27 wild-type MEFs. It counts as cell-based, mouse. As to conditions: 50 μM, 72 h, p27 wt MEFs. The protocol: (§1) Human MDA-MB-468 and MDA-MB-231 breast cancer cells and murine NIH 3T3 cells were obtained from the ATCC and cultured in DMEM medium. Human SK-Br3 and BT-474 breast cancer cells (ATCC) were cultured in McCoy's 5a medium and Hybri-Care medium, respectively. Mouse embryonic fibroblast (MEF) cells from p27 wild-type and p27 null mice were grown in DMEM. All media were supplemented with 10% fetal calf serum, 10 units/ml penicillin, and 10 μg/ml streptomycin. Subconfluent cells were treated with different concentrations of GGTI, FTI or DMSO vehicle for specific time periods. After treatment, cells were harvested by trypsinization.
(§2) Adherent cells were harvested by trypsinization and diluted with 0.4% Trypan Blue dye and counted on a hemacytometer. Cells excluding the dye were scored as live cells, whereas cells absorbing the dye were scored as dead cells. Cell proliferation was determined by dividing the number of live cells in the treated sample by the number of live cells in the control, and the degree of cell death was expressed as percentage of dead cells of the total cell number.

Assay [3] relates to MDA-MB-468 breast cancer cells. In words: Trypan Blue exclusion assay (proliferation, cell death) in MDA-MB-468 cells. It counts as cell-based, human. The protocol: as §1
Pre-designed siRNA to p27 (Cat #118714) and the negative control (Cat #4611) were purchased from Ambion (Austin, Tex.). Twenty-four hours before transfection, MDA-MB-468 cells were plated onto twelve-well plates in fresh DMEM medium containing 10% FBS and no antibiotics. Transient transfection of siRNA was carried out using Oligofectamine reagent (Invitrogen, Carlsbad, Calif.), following the manufacturer's instructions. In brief, 5 nM of p27 siRNA or control siRNA were mixed with Opti-MEM medium (Invitrogen) in such a way so that the total volume went to 90 μl, and then complexed with a mixture of 2 μl of Oligofectamine and 8 μl Opti-MEM; the total volume of RNA:Oligofectamine complex was 100 μl. The RNA:Oligofectamine complex was then incubated for 20 min at room temperature before adding to the cells. Before transfection, the old medium was discarded, cells were washed once with fresh Opti-MEM and 400 μl of fresh Opti-MEM placed into each well before adding the RNA:Oligofectamine complex to each well. The final diluted volume on each well was 500 μl. After 8 h, 500 μl DMEM containing 30% FBS was added to each well and cells were further incubated for 40 h.
as §2

Take `COC(=O)[C@H](CC(C)C)NC(=O)N1CCN(Cc2nc[nH]c2C)C(=O)[C@@H]1Cc1ccccc1` [GGTI-2417]: in assay [1] (50 μM, MDA-MB-468), the “increase of p27 Tyr phosphorylation” value was 3.5 fold and the “increase of p27 amounts (immunoprecipitated p27)” value is 11.9 fold. Moreover, in assay [1] (MDA-MB-468, 48 h), the “HDJ-2 farnesylation / processing” value is “not the farnesylation of HDJ-2”, the Rap1 geranylgeranylation entry is recorded as “inhibited the geranylgeranylation of Rap1” and the p27 protein levels entry was “increased p27 protein levels in a time-dependent manner”. Also, the inhibition of proliferation in assay [2] came out at 89.0±3.1%. The compound also returned a cell death in assay [2] (vehicle 22.4±7.2%) of 53.4±7.0%. The “tumor cell death in the presence of p27 siRNA” value in assay [3] (5 nM p27 siRNA, 50 μM GGTI-2417 or 1 μM taxol) is “unable to induce tumor cell death”. Also, the tumor cell death in assay [3] (50 μM, absence of p27 siRNA, vehicle 10.3%) was determined as 37.2%. For the same compound, in assay [3] (MDA-MB-468, 48 h, read-out: IC50, inhibition of cell proliferation), the IC50 is about 4 µM.

The values above are taken from patent publication US10946012B2, “Methods for inducing tumor regression, inhibiting tumor growth, and inducing apoptosis in breast tumors with geranylgeranyltransferase I inhibitors” (H. Lee Moffitt Cancer Center and Research Institute, Inc., priority 2009, dated 2021).
